For the data set the following is noted: ester bond, DCM.

Like-named read-outs stand apart in the source and are kept apart here.

Take `CCn1c(-c2cc(N3CCN(C4CC4)CC3)cnc2[C@H](C)OC)c2c3cc(ccc31)-c1nnc(o1)C[C@H](NC(=O)OCc1ccccc1)C(=O)N1N[C@H](C(=O)OCC(C)(C)C2)C2CC1C2`: the ring closure, yield of all isomers (from CCn1c(-c2cc(N3CCN(C4CC4)CC3)cnc2[C@H](C)OC)c(CC(C)(C)CO)c2cc(-c3nnc(C[C@H](NC(=O)OCc4ccccc4)C(=O)N4N[C@H](C(=O)O)C5CC4C5)o3)ccc21, PyBOP, DMAP, 6.64 mM, 25.0 °C, 16.0 h, 2 steps) came out at 29%.
`CCn1c(-c2cc(N3CCN(C)CC3)cnc2[C@H](C)OC)c2c3cc(ccc31)-c1csc(n1)C[C@H](NC(=O)OC(C)(C)C)C(=O)N(C)NCC(=O)OCC(C)(C)C2`: the ring closure, yield of all isomers (from CCn1c(-c2cc(N3CCN(C)CC3)cnc2[C@H](C)OC)c(CC(C)(C)CO)c2cc(-c3csc(C[C@H](NC(=O)OC(C)(C)C)C(=O)N(C)NCC(=O)O)n3)ccc21, PyBOP/DMAP, 0.81 mM, 0.0 °C, 1.0 h) was determined as 42%.
Turning to `CCn1c(-c2cc(N3CCN(C(=O)OCc4ccccc4)CC3)cnc2[C@H](C)OC)c2c3cc(ccc31)-c1csc(n1)C[C@H](NC(=O)OC(C)(C)C)C(=O)N(C)NCC(=O)OCC(C)(C)C2`, for the setting “from CCn1c(-c2cc(N3CCN(C(=O)OCc4ccccc4)CC3)cnc2[C@H](C)OC)c(CC(C)(C)CO)c2cc(-c3csc(C[C@H](NC(=O)OC(C)(C)C)C(=O)N(C)NCC(=O)O)n3)ccc21, EDCI/HOBt/DIEA, 4.25 mM, 25.0 °C, 16.0 h”, the ring closure, yield of all isomers stood at 38.2%.
Turning to `CCn1c(-c2cc(N3CCN(C(=O)OCc4ccccc4)CC3)cnc2[C@H](C)OC)c2c3cc(ccc31)N1CCO[C@@H](C[C@H](NC(=O)OC(C)(C)C)C(=O)N3N[C@H](C(=O)OCC(C)(C)C2)C2CC3C2)C1`, the ring closure, yield of all isomers (from CCn1c(-c2cc(N3CCN(C(=O)OCc4ccccc4)CC3)cnc2[C@H](C)OC)c(CC(C)(C)CO)c2cc(N3CCO[C@@H](C[C@H](NC(=O)OC(C)(C)C)C(=O)N4N[C@H](C(=O)O)C5CC4C5)C3)ccc21, PyBOP/DMAP, 9.8 mM, 35.0 °C, 0.5 h) worked out at 16%.
With `CCn1c(-c2cccnc2[C@H](C)OC)c2c3cc(ccc31)N1CCO[C@@H](C[C@H](NC(=O)OC(C)(C)C)C(=O)N3N[C@H](C(=O)OCC(C)(C)C2)C2CC3C2)C1`, the ring closure, yield of all isomers (from CCn1c(-c2cccnc2[C@H](C)OC)c(CC(C)(C)CO)c2cc(N3CCO[C@@H](C[C@H](NC(=O)OC(C)(C)C)C(=O)N4N[C@H](C(=O)O)C5CC4C5)C3)ccc21, PyBOP, DMAP, 2.6 mM, 25.0 °C, 16.0 h) was 96.2%.
For the setting “from CCn1c(-c2cc(N3CCN(C(=O)OCc4ccccc4)CC3)cnc2[C@H](C)OC)c(CC(C)(C)CO)c2cc(-c3csc(C[C@H](NC(=O)OC(C)(C)C)C(=O)N4N[C@@H](C(=O)O)C5CC4C5)n3)ccc21, EDCI/HOBt/DIEA, 5.2 mM, 35.0 °C”, `CCn1c(-c2cc(N3CCN(C(=O)OCc4ccccc4)CC3)cnc2[C@H](C)OC)c2c3cc(ccc31)-c1csc(n1)C[C@H](NC(=O)OC(C)(C)C)C(=O)N1N[C@@H](C(=O)OCC(C)(C)C2)C2CC1C2` yielded a ring closure, yield of all isomers of 49%.
For `CCn1c(-c2cc(N3CCN(C4CC4)CC3)cnc2[C@H](C)OC)c2c3cc(ccc31)-c1csc(n1)C[C@H](NC(=O)OC(C)(C)C)C(=O)N(C)NCC(=O)OCC(C)(C)C2`, the ring closure, yield of all isomers (from CCn1c(-c2cc(N3CCN(C4CC4)CC3)cnc2[C@H](C)OC)c(CC(C)(C)CO)c2cc(-c3csc(C[C@H](NC(=O)OC(C)(C)C)C(=O)N(C)NCC(=O)O)n3)ccc21, PyBOP/DMAP, 5.9 mM, 0.0 °C, 1.0 h) was found to be 27%.
As for `C=C[C@@H]1CCN2N[C@@H]1C(=O)OCC(C)(C)Cc1c(-c3cc(N4CCN(C(=O)OCc5ccccc5)CC4)cnc3[C@H](C)OC)n(CC)c3ccc(cc13)-c1csc(n1)C[C@H](NC(=O)OC(C)(C)C)C2=O`, where the note is “from C=C[C@@H]1CCN(C(=O)[C@H](Cc2nc(-c3ccc4c(c3)c(CC(C)(C)CO)c(-c3cc(N5CCN(C(=O)OCc6ccccc6)CC5)cnc3[C@H](C)OC)n4CC)cs2)NC(=O)OC(C)(C)C)N[C@@H]1C(=O)O, EDCI/HOBt/DIEA, 10.0 mM, 25.0 °C, 16.0 h”, the ring closure, yield of all isomers was found to be 36.7%.
`CCn1c(-c2cc(N3CCN(C)CC3)cnc2[C@H](C)OC)c2c3cc(ccc31)-c1csc(n1)C[C@H](NC(=O)OC(C)(C)C)C(=O)N1N[C@H](C(=O)OCC(C)(C)C2)C2CC1C2` displayed a ring closure, yield of all isomers (from CCn1c(-c2cc(N3CCN(C)CC3)cnc2[C@H](C)OC)c(CC(C)(C)CO)c2cc(-c3csc(C[C@H](NC(=O)OC(C)(C)C)C(=O)N4N[C@H](C(=O)O)C5CC4C5)n3)ccc21, PyBOP/DMAP, 5.8 mM, 25.0 °C, 5.0 h) of 48.8%.
In the case of `CCn1c(-c2cccnc2[C@H](C)OC)c2c3cc(ccc31)N1CCO[C@@H](C[C@H](NC(=O)OC(C)(C)C)C(=O)N(C)NCC(=O)OCC(C)(C)C2)C1`, the ring closure, yield of all isomers (from CCn1c(-c2cccnc2[C@H](C)OC)c(CC(C)(C)CO)c2cc(N3CCO[C@@H](C[C@H](NC(=O)OC(C)(C)C)C(=O)N(C)NCC(=O)O)C3)ccc21, EDCI/HOBt, DIEA, 6.5 mM, 25.0 °C, 16.0 h) turned out to be 44%.
For the compound `CCn1c(-c2cc(N3CCN(C(=O)OCc4ccccc4)CC3)cnc2[C@H](C)OC)c2c3cc(ccc31)-c1cccc(c1)C[C@H](NC(=O)OC(C)(C)C)C(=O)N1N[C@H](C(=O)OCC(C)(C)C2)C2CC1C2`, the ring closure, yield of all isomers (from CCn1c(-c2cc(N3CCN(C(=O)OCc4ccccc4)CC3)cnc2[C@H](C)OC)c(CC(C)(C)CO)c2cc(-c3cccc(C[C@H](NC(=O)OC(C)(C)C)C(=O)N4N[C@H](C(=O)O)C5CC4C5)c3)ccc21, EDCI/HOBt/DIEA, 6.0 mM, 25.0 °C, 16.0 h) stood at 27%.
